The results in this text go back to paper PMC5270753, “Novel thermostable antibiotic resistance enzymes from the Atlantis II Deep Red Sea brine pool” (Microbial Biotechnology, 2016).

The term Km denotes the concentration of substrate that gives half-maximal velocity.

One experiment concerns T1, ATII-ABL.
T1 construct: gene bla
In words: chromogenic nitrocefin hydrolysis at […] nm. The class given is biochemical, uncultured bacterium. The following applies: 100 nM enzyme; Michaelis-Menten fit.

A further experiment deals with T2, ATII-APH(3′).
T2 construct: full-length ORF (804 nt query), codon-optimised synthetic gene, N-terminal 10x-His tag (pET-16b), E. coli BL21(DE3), Talon-purified
In words: pyruvate kinase/lactate dehydrogenase coupled assay, NADH oxidation at […] nm. The conditions noted are these: phosphorylation of aminoglycoside; Michaelis-Menten fit. The class given is biochemical.

As to `O=C(Cc1cccs1)N[C@@H]1C(=O)N2C(C(=O)O)=C(/C=C/c3ccc([N+](=O)[O-])cc3[N+](=O)[O-])CS[C@H]12` [Nitrocefin], in the experiment on ATII-ABL, the Km came to 5.07 ± 1.65 µM.
`NCC[C@H](O)C(=O)N[C@@H]1C[C@H](N)[C@@H](O[C@H]2O[C@H](CN)[C@@H](O)[C@H](O)[C@H]2O)[C@H](O)[C@H]1O[C@H]1O[C@H](CO)[C@@H](O)[C@H](N)[C@H]1O` [Amikacin]: the Km in the experiment on ATII-APH(3′) amounted to 5500 ± 1650 µM.
Take `NC[C@H]1O[C@H](O[C@H]2[C@H](O)[C@@H](O[C@H]3O[C@H](CO)[C@@H](O)[C@H](N)[C@H]3O)[C@H](N)C[C@@H]2N)[C@H](O)[C@@H](O)[C@@H]1O` [Kanamycin]: the Km with ATII-APH(3′) is 4.7 ± 0.96 µM.
